The values that follow come from US12410171B2, “Tropomyosin receptor kinase (TRK) degradation compounds and methods of use” (Cullgen (Shanghai), Inc., priority 2020, dated 2025).

One may read the IC50 as the midpoint of a concentration-inhibition curve.

Bounds are passed on as bounds.

One assay concerns KM12 cells. The assay can be described thus: KM12 cell viability (CellTiter-Glo). It is filed as cell-based. Particulars: for IC50: Homo sapiens, 72 h, KM12 cell viability, CellTiter-Glo, three days treatment, read-out: IC50. The gist of the method: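 KM12 cells seeded at 5000 per well in RPMI 1640 + 10% FBS and exposed 3 days to serial dilutions (11-point 3-fold, 8-point 3-fold from 1000 nM, or 12-point 2-fold). Viability by CellTiter-Glo; IC50 from least-squares nonlinear regression.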

Another assay concerns the target T1, TPM3-TRKA fusion protein (Homo sapiens, UniProt P04629).
T1 construct: The resulted chimeric proteins always retain the kinase domain of TRK proteins; TPM3 (fusion partner, N-terminal part of tropomyosin alpha-3, P06753); endogenous in cells; host or cells: KM12 colon cancer cells; the other entry of the earlier key: TPM3 (P06753, Tropomyosin alpha-3 chain)
The assay can be described thus: TPM3-TRKA fusion protein levels in KM12 cells (Western blot). It is filed as cell-based. Particulars: for percent degradation of TPM3-TRKA protein at 0.01 µM: 16 h, TPM3-TRKA degradation in KM12 cells at 10 nM compound, category of percentage degradation, read-out: Degradation (at 10 nM). The gist of the method:
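KM12 colon cancer cells were treated with DMSO or compounds at 0.1–100 nM, 0.4–30 nM or other stated concentrations for 4, 8–16 or 16 h. RIPA lysates were BCA-normalized and resolved by SDS-PAGE. TPM3-TRKA was detected by chemiluminescent Western blot, with bands quantified by densitometry.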
For orientation: A western blot detects proteins with antibodies after separation by electrophoresis.

Where [1] appears, read: 500 nM, 12-point 2-fold serial dilution, 3 days (FIG. 4A).

T1 sequence (P04629 with tags, fused parts or gaps): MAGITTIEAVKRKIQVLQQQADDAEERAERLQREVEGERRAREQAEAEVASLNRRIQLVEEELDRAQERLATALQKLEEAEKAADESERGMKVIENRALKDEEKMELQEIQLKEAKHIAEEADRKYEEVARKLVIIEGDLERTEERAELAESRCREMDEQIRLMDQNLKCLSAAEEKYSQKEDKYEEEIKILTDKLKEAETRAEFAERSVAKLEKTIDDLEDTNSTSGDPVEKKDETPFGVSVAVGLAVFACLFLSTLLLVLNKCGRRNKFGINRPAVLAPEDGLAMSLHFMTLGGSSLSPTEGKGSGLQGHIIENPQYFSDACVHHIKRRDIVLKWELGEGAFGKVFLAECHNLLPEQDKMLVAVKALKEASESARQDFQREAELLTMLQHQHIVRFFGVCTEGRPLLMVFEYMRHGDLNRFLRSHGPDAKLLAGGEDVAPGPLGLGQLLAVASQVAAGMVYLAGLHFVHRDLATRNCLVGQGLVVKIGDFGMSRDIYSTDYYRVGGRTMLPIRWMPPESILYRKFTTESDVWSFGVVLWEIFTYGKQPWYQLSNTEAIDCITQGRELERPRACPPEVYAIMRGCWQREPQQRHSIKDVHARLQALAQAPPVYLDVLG

In the case of `O=C1CCC(N2C[C@H](c3ccc(C#CCN4CCN(c5cccc(-c6cnc7ccc(N8CCCC8c8cccc(F)c8)nn67)n5)CC4)cc3)OC2=O)C(=O)N1` (stereo in doubt) [TR-224, 3-((S)-5-(4-(3-(4-(6-(6-((S)-2-(3-fluorophenyl)pyrrolidin-1-yl)imidazo[1,2-b]pyridazin-3-yl)pyridin-2-yl)piperazin-1-yl)prop-1-yn-1-yl)phenyl)-2-oxooxazolidin-3-yl)piperidine-2,6-dione], the IC50 in the assay with KM12 cells worked out at 0.0087 µM. Also, the percent degradation of TPM3-TRKA protein at 0.01 µM on TPM3-TRKA fusion protein was over 80%.

On to `O=C1CCC(N2C(=O)c3cccc(NCCOCCOCCOCCC(=O)N4CCN(c5cccc(-c6cnc7ccc(N8CCC[C@@H]8c8cccc(F)c8)nn67)n5)CC4)c3C2=O)C(=O)N1` (stereo partly drawn) [CPD-010, 2-(2,6-Dioxopiperidin-3-yl)-4-((2-(2-(2-(3-(4-(6-(6-((R)-2˜ (3-fluorophenyl)pyrrolidin-1-yl)imidazo[1,2-b]pyridazin-3-yl)pyridin-2-yl)piperazin-1-yl)-3-oxopropoxy)ethoxy)ethoxy)ethyl)amino) isoindoline-1,3-dione], for which the “viability of KM12 cells” value in the assay with KM12 cells (setting [1]) is reported as “inhibited the viability of KM12 cells”. At TPM3-TRKA fusion protein, the percent degradation of TPM3-TRKA protein at 0.01 µM was in the range of 50 to 80%.

Turning to `O=C1CCC(N2C(=O)c3cccc(NCCCC(=O)N4CCN(c5ccc(C(=O)Nc6n[nH]c7ccc(Cc8cc(F)cc(F)c8)cc67)c(NC6CCOCC6)c5)CC4)c3C2=O)C(=O)N1` (stereo not shown) [CPD-053, N-(5-(3,5-Difluorobenzyl)-1H-indazol-3-yl)-4-(4-(4-((2-(2,6-dioxopiperidin-3-yl)-1,3-dioxoisoindolin-4-yl)amino)butanoyl)piperazin-1-yl)-2-((tetrahydro-2H-pyran-4-yl)amino)benzamide], the “viability of KM12 cells” value is given as “inhibited the viability of KM12 cells” in the assay on KM12 cells (setting [1]) and “significantly inhibited the viability of KM12 cells” in the assay with KM12 cells (1000 nM, 8-point 3-fold serial dilution, 3 days (FIG. 4B)). Moreover, the IC50 in the assay on KM12 cells stood at 0.0015 µM. Also, the percent degradation of TPM3-TRKA protein at 0.01 µM at TPM3-TRKA fusion protein is over 80%. The TPM3-TRKA protein levels entry on TPM3-TRKA fusion protein (KM12 cells, 100 nM, indicated incubation time, Western blot (FIG. 2)) was “rapidly reduced TPM3-TRKA protein levels”.

Regarding `Cn1c(=O)n(C2CCC(=O)NC2=O)c2ccc(OCCCN3CCN(c4cccc(-c5cnc6ccc(N7CCC[C@@H]7c7cccc(F)c7)nn56)n4)CC3)cc21` (stereo partly drawn) [TR-257, 3-(5-(3-(4-(6-(6-((R)-2-(3-Fluorophenyl)pyrrolidin-1-yl)imidazo[1,2-b]pyridazin-3-yl)pyridin-2-yl)piperazin-1-yl)propoxy)-3-methyl-2-oxo-2,3-dihydro-1H-benzo[d]imidazol-1-yl)piperidine-2,6-dione], in the assay on KM12 cells, the IC50 is over 0.5 µM.

For the compound `O=C1CCC(N2C(=O)c3ccc(CN4CCN(c5ccc(C(=O)Nc6n[nH]c7ccc(Cc8cc(F)cc(F)c8)cc67)c(NC6CCOCC6)c5)CC4)cc3C2=O)C(=O)N1` (stereo not shown) [TR-274, N-(5-(3,5-Difluorobenzyl)-1H-indazol-3-yl)-4-(4-((2-(2,6-dioxopiperidin-3-yl)-1,3-dioxoisoindolin-5-yl)methyl)piperazin-1-yl)-2-((tetrahydro-2/-pyran-4-yl)amino)benzamide], the IC50 in the assay with KM12 cells is 0.44 µM.

As to `O=C1CCC(N2C(=O)c3ccc(CCN4CCN(c5ccc(C(=O)Nc6n[nH]c7ccc(Cc8cc(F)cc(F)c8)cc67)c(NC6CCOCC6)c5)CC4)cc3C2=O)C(=O)N1` (stereo not shown) [TR-277, N-(5-(3,5-Difluorobenzyl)-1H-indazol-3-yl)-4-(4-(2-(2-(2,6-dioxopiperidin-3-yl)-1,3-dioxoisoindolin-S-yl)ethyl)piperazin-1-yl)-2-((tetrahydro-2H-pyran-4-yl)amino)benzamide], the IC50 in the assay on KM12 cells is over 0.5 µM.

For `O=C1CCC(N2C(=O)c3ccc(N4CC5(CCC(N6CCN(c7ccc(C(=O)Nc8n[nH]c9ccc(Cc%10cc(F)cc(F)c%10)cc89)c(NC8CCOCC8)c7)CC6)C5)C4)cc3C2=O)C(=O)N1` (stereo not shown) [TR-291, N-(5-(3,5˜Difluorobenzyl)-1H-indazol-3-yl)-4-(4-(2-(2-(2,6-dioxopiperidin-3-yl)-1,3-dioxoisoindolin-5-yl)-2-azaspiro[3.4]octan-6-yl)piperazin-1-yl)-2-((tetrahydro-2H-pyran˜4-yl)amino)benzamide], the 50% inhibitory concentration (IC50) in the assay on KM12 cells worked out at 0.446 µM.

Regarding `Cc1nc2cccc(N3CC(CCN4CCN(c5cccc(-c6cnc7ccc(N8CCC[C@@H]8c8cccc(F)c8)nn67)n5)CC4)C3)c2c(=O)n1C1CCC(=O)NC1=O` (stereo partly drawn) [TR-307, 3-(5˜ (3-(2-(4-(6-(6-((R)-2-(3-Fluorophenyl)pyrrolidin-1-yl)imidazo[1,2-b]pyridazin-3-yl)pyridin-2-yl)piperazin-1-yl)ethyl)azetidin-1-yl)-2-methyl-4-oxoquinazolin-3 (4H)-yl)piperidine-2,6-dione], the IC50 in the assay with KM12 cells was 0.0127 µM.

Turning to `O=C1CCC(n2c(=O)n(CCN3CCN(c4ccc(C(=O)Nc5n[nH]c6ccc(Cc7cc(F)cc(F)c7)cc56)c(NC5CCOCC5)c4)CC3)c3ccccc32)C(=O)N1` (stereo not drawn) [TR-310, N—(S-(3,5-Difluorobenzyl)-1H-indazol-3-yl)-4-(4-(2-(3-(2,6-dioxopiperidin-3-yl)-2-oxo-2,3-dihydro-1H-benzo[d]imidazol-1-yl)ethyl)piperazin-1-yl)-2-((tetrahydro-2H-pyran-4-yl)amino)benzamide], in the assay on KM12 cells, the IC50 was determined as 0.0125 µM.

With `O=C1CCC(n2c(=O)n(CCCN3CCN(c4ccc(C(=O)Nc5n[nH]c6ccc(Cc7cc(F)cc(F)c7)cc56)c(NC5CCOCC5)c4)CC3)c3ccccc32)C(=O)N1` (stereo not drawn) [TR-311, N—(S-(3,5-Difluorobenzyl)-1H-indazol-3-yl)-4-(4-(3-(3-(2,6-dioxopiperidin-3-yl)-2-oxo-2,3-dihydro-1H-benzo[d]imidazol-1-yl)propyl)piperazin-1-yl)-2˜ ((tetrahydro-2H-pyran-4-yl)amino)benzamide], the IC50 in the assay with KM12 cells came out at 0.0148 µM.

In the case of `Cn1c(=O)n(C2CCC(=O)NC2=O)c2cccc(OCCCN3CCN(c4ccc(C(=O)Nc5n[nH]c6ccc(Cc7cc(F)cc(F)c7)cc56)c(NC5CCOCC5)c4)CC3)c21` (stereo not shown) [TR-312, N-(5-(3,5-Difluorobenzyl)-1H-indazol-3-yl)-4-(4-(3-((1-(2,6-dioxopiperidin-3-yl)-3-methyl-2-oxo-2,3-dihydro-1H-benzo[d]imidazol-4-yl)oxy)propyl)piperazin-1-yl)-2-((tetrahydro-2/˜pyran-4-yl)amino)benzamide], in the assay on KM12 cells, the IC50 worked out at 0.107 µM.

As to `Cn1c(=O)n(C2CCC(=O)NC2=O)c2ccc(OCCCN3CCN(c4ccc(C(=O)Nc5n[nH]c6ccc(Cc7cc(F)cc(F)c7)cc56)c(NC5CCOCC5)c4)CC3)cc21` (stereo not shown) [TR-313, N-(5-(3,5-Difluorobenzyl)-1H-indazol-3-yl)-4-(4-(3-((1-(2,6-dioxopiperidin-3-yl)-3-methyl-2-oxo-2,3-dihydro-1H-benzo[d]imidazol-5-yl)oxy)propyl)piperazin-1-yl)-2-((tetrahydro-2/1-pyran-4-yl)amino)benzamide], in the assay with KM12 cells, the IC50 stood at 0.0138 µM.

For `O=C1CCC(N2C(=O)c3ccc(N4CC5(CN(CC6CCN(c7ccc(C(=O)Nc8n[nH]c9ccc(Cc%10cc(F)cc(F)c%10)cc89)c(NC8CCOCC8)c7)CC6)C5)C4)cc3C2=O)C(=O)N1` (stereo not shown) [TR-329], the half-maximal inhibitory concentration (IC50) in the assay on KM12 cells is over 0.5 µM.
